Our source for the ED50 and Activity values is ChEMBL document CHEMBL1955831, “Inhibitors of human histone deacetylase with potent activity against the African trypanosome Trypanosoma brucei” (Bioorg Med Chem Lett, 2012).

Experiment [1] has as its target Histone deacetylase 9 (Homo sapiens) (UniProt Q9UKV0). The experiment in a line: Inhibition of human recombinant HDAC9 expressed using baculovirus expression system using Flour- De-Lys as substrate after 3 hrs by fluorescence analysis.
The subject of another experiment is Trypanosoma brucei. Briefly: Antitrypanosomal activity against bloodstream Trypanosoma brucei 427 assessed as cell death at 2 ug/ml within 4 hrs by Giemsa staining-based DMRB microscopic analysis.
The target in experiment [2] is Histone deacetylase 2 (Homo sapiens) (UniProt Q92769). Briefly: Inhibition of human recombinant HDAC2 expressed using baculovirus expression system using Flour- De-Lys as substrate after 3 hrs by fluorescence analysis.
Experiment [3] addresses Histone deacetylase 3 (Homo sapiens) (UniProt O15379). Briefly: Inhibition of human recombinant HDAC3 expressed using baculovirus expression system using Flour- De-Lys as substrate after 3 hrs by fluorescence analysis.
Experiment [4] addresses T1, Histone deacetylase 8 (Homo sapiens) (UniProt Q9BY41).
T1 sequence (whole entry): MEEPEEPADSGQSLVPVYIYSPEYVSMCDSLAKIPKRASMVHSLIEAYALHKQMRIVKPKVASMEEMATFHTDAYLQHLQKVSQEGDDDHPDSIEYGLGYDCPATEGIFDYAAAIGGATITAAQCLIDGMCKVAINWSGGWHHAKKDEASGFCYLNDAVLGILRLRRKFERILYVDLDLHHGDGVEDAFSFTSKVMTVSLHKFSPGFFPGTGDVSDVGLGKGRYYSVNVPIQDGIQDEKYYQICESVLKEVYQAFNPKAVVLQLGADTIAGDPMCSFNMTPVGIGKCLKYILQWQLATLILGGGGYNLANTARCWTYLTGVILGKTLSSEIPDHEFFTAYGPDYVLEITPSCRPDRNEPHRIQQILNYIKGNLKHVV
The experiment in a line: Inhibition of human recombinant HDAC8 expressed using baculovirus expression system using Flour- De-Lys as substrate after 3 hrs by fluorescence analysis.

Experiment [5] addresses Histone deacetylase 4 (Homo sapiens) (UniProt P56524). Briefly: Inhibition of human recombinant HDAC4 expressed using baculovirus expression system using Flour- De-Lys as substrate after 3 hrs by fluorescence analysis.

Activity calls are given as the source filed them. The calls are words filed in the database; no cut-off is given here.

Histone deacetylase 9 (Homo sapiens), sequence (Q9UKV0 whole entry): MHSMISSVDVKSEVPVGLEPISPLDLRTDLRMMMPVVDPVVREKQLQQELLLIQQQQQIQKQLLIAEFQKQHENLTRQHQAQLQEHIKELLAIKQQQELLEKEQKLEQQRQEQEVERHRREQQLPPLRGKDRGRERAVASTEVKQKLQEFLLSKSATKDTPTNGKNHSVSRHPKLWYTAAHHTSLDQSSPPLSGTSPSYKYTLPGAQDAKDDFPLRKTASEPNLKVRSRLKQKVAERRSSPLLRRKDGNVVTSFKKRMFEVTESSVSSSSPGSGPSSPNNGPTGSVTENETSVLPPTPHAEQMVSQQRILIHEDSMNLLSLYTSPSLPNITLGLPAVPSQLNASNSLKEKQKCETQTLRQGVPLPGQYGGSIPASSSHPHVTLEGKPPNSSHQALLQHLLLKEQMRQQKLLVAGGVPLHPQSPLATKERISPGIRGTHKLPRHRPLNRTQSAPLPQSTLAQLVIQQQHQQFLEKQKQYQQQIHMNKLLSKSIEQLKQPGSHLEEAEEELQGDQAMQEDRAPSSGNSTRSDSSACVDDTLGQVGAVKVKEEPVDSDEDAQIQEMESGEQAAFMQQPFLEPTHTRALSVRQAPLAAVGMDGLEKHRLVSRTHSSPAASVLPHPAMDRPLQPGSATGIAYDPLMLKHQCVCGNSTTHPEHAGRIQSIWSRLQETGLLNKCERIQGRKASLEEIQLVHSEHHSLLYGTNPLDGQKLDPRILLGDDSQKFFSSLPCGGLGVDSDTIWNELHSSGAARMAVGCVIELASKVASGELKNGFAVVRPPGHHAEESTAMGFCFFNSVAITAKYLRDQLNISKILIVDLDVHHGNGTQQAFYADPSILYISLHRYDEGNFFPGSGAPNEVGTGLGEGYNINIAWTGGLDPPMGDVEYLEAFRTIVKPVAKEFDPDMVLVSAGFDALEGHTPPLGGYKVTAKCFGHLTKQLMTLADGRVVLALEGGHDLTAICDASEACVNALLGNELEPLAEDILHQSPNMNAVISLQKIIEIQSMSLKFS
Histone deacetylase 2 (Homo sapiens), sequence (Q92769 whole entry): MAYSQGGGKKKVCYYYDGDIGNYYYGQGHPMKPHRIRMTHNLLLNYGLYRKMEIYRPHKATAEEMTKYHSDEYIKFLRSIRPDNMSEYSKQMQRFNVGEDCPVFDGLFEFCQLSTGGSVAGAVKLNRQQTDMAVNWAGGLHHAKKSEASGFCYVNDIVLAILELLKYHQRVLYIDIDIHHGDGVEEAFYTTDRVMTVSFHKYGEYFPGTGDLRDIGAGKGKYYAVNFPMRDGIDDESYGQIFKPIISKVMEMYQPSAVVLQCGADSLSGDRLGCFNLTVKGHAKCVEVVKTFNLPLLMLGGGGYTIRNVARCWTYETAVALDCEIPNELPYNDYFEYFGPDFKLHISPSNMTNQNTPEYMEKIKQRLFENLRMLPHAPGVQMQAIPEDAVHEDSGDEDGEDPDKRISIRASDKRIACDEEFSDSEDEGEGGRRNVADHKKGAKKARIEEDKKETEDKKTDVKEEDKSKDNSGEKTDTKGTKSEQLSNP
Histone deacetylase 3 (Homo sapiens), sequence (O15379 whole entry): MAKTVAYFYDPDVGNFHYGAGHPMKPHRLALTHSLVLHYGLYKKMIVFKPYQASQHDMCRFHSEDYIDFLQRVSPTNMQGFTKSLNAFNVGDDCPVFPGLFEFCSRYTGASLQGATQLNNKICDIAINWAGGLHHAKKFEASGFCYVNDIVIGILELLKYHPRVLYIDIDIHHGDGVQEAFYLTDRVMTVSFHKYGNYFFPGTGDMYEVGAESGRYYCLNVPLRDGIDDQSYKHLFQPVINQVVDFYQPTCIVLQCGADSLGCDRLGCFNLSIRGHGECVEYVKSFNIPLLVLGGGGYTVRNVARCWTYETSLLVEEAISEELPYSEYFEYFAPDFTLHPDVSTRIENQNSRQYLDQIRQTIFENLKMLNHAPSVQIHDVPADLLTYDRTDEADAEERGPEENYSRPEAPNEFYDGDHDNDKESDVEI
Histone deacetylase 4 (Homo sapiens), sequence (P56524 whole entry): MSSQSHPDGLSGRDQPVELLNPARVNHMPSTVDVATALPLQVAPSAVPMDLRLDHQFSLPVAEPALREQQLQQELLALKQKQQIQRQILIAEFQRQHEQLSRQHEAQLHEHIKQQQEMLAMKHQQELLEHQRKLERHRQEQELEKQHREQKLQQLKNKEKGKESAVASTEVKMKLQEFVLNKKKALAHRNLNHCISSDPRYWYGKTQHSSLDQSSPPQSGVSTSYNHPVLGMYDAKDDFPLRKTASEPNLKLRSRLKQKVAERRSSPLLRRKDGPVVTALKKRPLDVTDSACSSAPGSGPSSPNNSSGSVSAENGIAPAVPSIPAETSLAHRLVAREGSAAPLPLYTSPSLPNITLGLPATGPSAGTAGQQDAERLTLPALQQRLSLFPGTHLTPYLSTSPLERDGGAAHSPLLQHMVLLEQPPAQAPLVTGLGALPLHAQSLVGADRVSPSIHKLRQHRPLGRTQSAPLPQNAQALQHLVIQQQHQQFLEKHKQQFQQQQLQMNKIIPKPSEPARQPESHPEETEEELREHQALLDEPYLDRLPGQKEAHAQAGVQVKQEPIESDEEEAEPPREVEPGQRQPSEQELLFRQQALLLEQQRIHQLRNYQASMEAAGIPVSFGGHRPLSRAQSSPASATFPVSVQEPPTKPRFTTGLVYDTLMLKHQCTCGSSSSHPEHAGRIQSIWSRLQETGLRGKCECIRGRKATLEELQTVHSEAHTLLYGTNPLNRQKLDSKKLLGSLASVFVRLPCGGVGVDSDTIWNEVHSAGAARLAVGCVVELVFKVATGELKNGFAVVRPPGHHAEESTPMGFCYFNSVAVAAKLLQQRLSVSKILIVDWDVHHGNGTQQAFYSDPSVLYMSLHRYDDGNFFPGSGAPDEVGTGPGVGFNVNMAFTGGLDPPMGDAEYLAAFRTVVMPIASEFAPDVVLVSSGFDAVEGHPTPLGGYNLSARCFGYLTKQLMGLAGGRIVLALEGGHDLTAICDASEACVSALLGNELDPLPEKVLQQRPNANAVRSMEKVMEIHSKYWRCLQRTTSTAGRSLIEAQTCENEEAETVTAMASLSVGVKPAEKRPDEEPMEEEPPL

Consider `COc1ccc(N2CCN(S(=O)(=O)c3cccc(/C=C/C(=O)NO)c3)CC2)cc1`, for which the ED50 in experiment [1] turned out to be 1180 nM.

As for `O=C(/C=C/c1cccc(S(=O)(=O)N2CCN(c3ncccn3)CC2)c1)NO`, in the experiment on Trypanosoma brucei, the outcome was Active.

Turning to `COc1ccc(NS(=O)(=O)c2cccc(/C=C/C(=O)NO)c2)cc1`, the ED50 in experiment [2] worked out at 105 nM.

Turning to `O=C(/C=C/c1nc2ccccc2o1)NO`, the ED50 in experiment [3] worked out at 97 nM.

Consider `O=C(/C=C/c1cccc(S(=O)(=O)N2CCN(c3ccccn3)CC2)c1)NO`, for which, in experiment [4], the ED50 came to 581 nM.

As to `O=C(/C=C/c1cccc(S(=O)(=O)Nc2cccc(F)c2)c1)NO`, the ED50 in experiment [5] was determined as 65 nM.

Turning to `COc1ccccc1N1CCN(S(=O)(=O)c2cccc(/C=C/C(=O)NO)c2)CC1`, the ED50 in experiment [1] stood at 145 nM.
